Source: the supplement of paper PMC10307832

Key:
Test in all cases: relative viability (nuclei count vs DMSO), 5 days (fraction); higher = more cells survive
NCI-H2347 = tested on: NCI-H2347
Procedure, shortened: (§1)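 Relative viability is defined as nuclei in treated wells over nuclei in vehicle wells. Duplicate plates were run and medians reported. Lung cancer cell lines in 1536-well plates were dosed by pin tool one day after seeding, with one drug or with a fixed anchor-drug dose plus five library-drug doses (not always all listed) in √10 steps, and nuclei were counted after 5 days.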

NCI-H520 = tested on: NCI-H520
Procedure, shortened: as §1

NCI-H441 = tested on: NCI-H441
Procedure, shortened: as §1

NCI-H1563 = tested on: NCI-H1563
Procedure, shortened: as §1

COR-L23 = tested on: COR-L23
Procedure, shortened: as §1

NCI-H1793 = tested on: NCI-H1793
Procedure, shortened: as §1

201T = tested on: 201T
Procedure, shortened: as §1

HCC-15 = tested on: HCC-15
Procedure, shortened: as §1

EPLC-272H = tested on: EPLC-272H
Procedure, shortened: as §1

NCI-H2023 = tested on: NCI-H2023
Procedure, shortened: as §1

NCI-H647 = tested on: NCI-H647
Procedure, shortened: as §1

UMC-11 = tested on: UMC-11
Procedure, shortened: as §1

NCI-H2405 = tested on: NCI-H2405
Procedure, shortened: as §1

H3255 = tested on: H3255
Procedure, shortened: as §1

NCI-H3122 = tested on: NCI-H3122
Procedure, shortened: as §1

NCI-H1734 = tested on: NCI-H1734
Procedure, shortened: as §1

NCI-H322M = tested on: NCI-H322M
Procedure, shortened: as §1

PC-14 = tested on: PC-14
Procedure, shortened: as §1

LOU-NH91 = tested on: LOU-NH91
Procedure, shortened: as §1

Work on Cc1sc2c(c1C)C(c1ccc(Cl)cc1)=N[C@@H](CC(=O)OC(C)(C)C)c1nnc(C)n1-2 [JQ1] + C[C@]1(O)C[C@@H](c2nc(-c3ccc4ccc(-c5ccccc5)nc4c3)c3c(N)nccn32)C1 [Linsitinib] (partner 1 µM) yielded a relative viability (NCI-H2347; first compound 0.04 µM) of 0.934, a relative viability (NCI-H2347; first compound 0.1265 µM) of 0.747 and a relative viability (NCI-H2347; first compound 0.4 µM) of 0.743. The relative viability (NCI-H2347; first compound 1.265 µM) was 0.632, the relative viability (NCI-H2347; first compound 4 µM) was 0.45 and the relative viability (NCI-H520; first compound 0.04 µM) was 0.962. For the same compound, the relative viability (NCI-H520; first compound 0.1265 µM) was 1.26, the relative viability (NCI-H520; first compound 0.4 µM) was 0.821 and the relative viability (NCI-H520; first compound 1.265 µM) was 0.435. The relative viability (NCI-H520; first compound 4 µM) was 0.287, the relative viability (NCI-H441; first compound 0.04 µM) was 0.774 and the relative viability (NCI-H441; first compound 0.1265 µM) was 0.484. It also gave a relative viability (NCI-H441; first compound 0.4 µM) of 0.579, a relative viability (NCI-H441; first compound 1.265 µM) of 0.386 and a relative viability (NCI-H441; first compound 4 µM) of 0.306. The relative viability (NCI-H1563; first compound 0.04 µM) was 1.28, the relative viability (NCI-H1563; first compound 0.1265 µM) was 1.1 and the relative viability (NCI-H1563; first compound 0.4 µM) was 0.976. For the same compound, the relative viability (NCI-H1563; first compound 1.265 µM) was 0.722, the relative viability (NCI-H1563; first compound 4 µM) was 0.646 and the relative viability (COR-L23; first compound 0.04 µM) was 0.931. It also gave a relative viability (COR-L23; first compound 0.1265 µM) of 0.74, a relative viability (COR-L23; first compound 0.4 µM) of 0.818 and a relative viability (COR-L23; first compound 1.265 µM) of 0.226. It also gave a relative viability (COR-L23; first compound 4 µM) of 0.172, a relative viability (NCI-H1793; first compound 0.04 µM) of 0.936 and a relative viability (NCI-H1793; first compound 0.1265 µM) of 0.755. It also gave a relative viability (NCI-H1793; first compound 0.4 µM) of 0.923, a relative viability (NCI-H1793; first compound 1.265 µM) of 0.715 and a relative viability (NCI-H1793; first compound 4 µM) of 0.952. The relative viability (201T; first compound 0.04 µM) was 0.996, the relative viability (201T; first compound 0.1265 µM) was 1.08 and the relative viability (201T; first compound 0.4 µM) was 0.924. It also gave a relative viability (201T; first compound 1.265 µM) of 0.607, a relative viability (201T; first compound 4 µM) of 0.511 and a relative viability (HCC-15; first compound 0.04 µM) of 0.732. It also gave a relative viability (HCC-15; first compound 0.4 µM) of 0.769, a relative viability (HCC-15; first compound 1.265 µM) of 0.542 and a relative viability (HCC-15; first compound 4 µM) of 0.476. For the same compound, the relative viability (EPLC-272H; first compound 0.04 µM) was 1.14, the relative viability (EPLC-272H; first compound 0.1265 µM) was 1.07 and the relative viability (EPLC-272H; first compound 0.4 µM) was 1.12. For the same compound, the relative viability (EPLC-272H; first compound 1.265 µM) was 0.502, the relative viability (EPLC-272H; first compound 4 µM) was 0.418 and the relative viability (NCI-H2023; first compound 0.04 µM) was 0.653. The relative viability (NCI-H2023; first compound 0.1265 µM) was 0.576, the relative viability (NCI-H2023; first compound 0.4 µM) was 0.379 and the relative viability (NCI-H2023; first compound 1.265 µM) was 0.207. For the same compound, the relative viability (NCI-H2023; first compound 4 µM) was 0.157, the relative viability (NCI-H647; first compound 0.04 µM) was 1.12 and the relative viability (NCI-H647; first compound 0.1265 µM) was 0.754. For the same compound, the relative viability (NCI-H647; first compound 0.4 µM) was 0.568, the relative viability (NCI-H647; first compound 1.265 µM) was 0.151 and the relative viability (NCI-H647; first compound 4 µM) was 0.16. It also gave a relative viability (UMC-11; first compound 0.04 µM) of 0.866, a relative viability (UMC-11; first compound 0.1265 µM) of 0.793 and a relative viability (UMC-11; first compound 0.4 µM) of 0.321. The relative viability (UMC-11; first compound 1.265 µM) was 0.237, the relative viability (UMC-11; first compound 4 µM) was 0.203 and the relative viability (NCI-H2405; first compound 0.04 µM) was 0.919. For the same compound, the relative viability (NCI-H2405; first compound 0.4 µM) was 0.779, the relative viability (NCI-H2405; first compound 1.265 µM) was 0.535 and the relative viability (NCI-H2405; first compound 4 µM) was 0.537. For the same compound, the relative viability (H3255; first compound 0.04 µM) was 0.913, the relative viability (H3255; first compound 0.1265 µM) was 0.728 and the relative viability (H3255; first compound 0.4 µM) was 0.881. The relative viability (H3255; first compound 1.265 µM) was 0.402, the relative viability (H3255; first compound 4 µM) was 0.328 and the relative viability (NCI-H3122; first compound 0.04 µM) was 0.966. For the same compound, the relative viability (NCI-H3122; first compound 0.1265 µM) was 0.931, the relative viability (NCI-H3122; first compound 0.4 µM) was 0.97 and the relative viability (NCI-H3122; first compound 1.265 µM) was 0.757. For the same compound, the relative viability (NCI-H3122; first compound 4 µM) was 0.625, the relative viability (NCI-H1734; first compound 0.04 µM) was 0.831 and the relative viability (NCI-H1734; first compound 0.1265 µM) was 0.823. The relative viability (NCI-H1734; first compound 0.4 µM) was 0.879, the relative viability (NCI-H1734; first compound 1.265 µM) was 0.63 and the relative viability (NCI-H1734; first compound 4 µM) was 0.418. For the same compound, the relative viability (NCI-H322M; first compound 0.04 µM) was 0.546, the relative viability (NCI-H322M; first compound 0.1265 µM) was 0.935 and the relative viability (NCI-H322M; first compound 0.4 µM) was 0.874. It also gave a relative viability (NCI-H322M; first compound 1.265 µM) of 0.474, a relative viability (NCI-H322M; first compound 4 µM) of 0.462 and a relative viability (PC-14; first compound 0.04 µM) of 0.936. The relative viability (PC-14; first compound 0.1265 µM) was 0.735, the relative viability (PC-14; first compound 0.4 µM) was 0.779 and the relative viability (PC-14; first compound 1.265 µM) was 0.611. For the same compound, the relative viability (PC-14; first compound 4 µM) was 0.356, the relative viability (LOU-NH91; first compound 0.04 µM) was 0.905 and the relative viability (LOU-NH91; first compound 0.1265 µM) was 0.777. The relative viability (LOU-NH91; first compound 0.4 µM) was 0.579, the relative viability (LOU-NH91; first compound 1.265 µM) was 0.474 and the relative viability (LOU-NH91; first compound 4 µM) was 0.489.
